Laboratory results: US10738024B2, “Compounds for treatment of angiogenesis-mediated diseases” (Indiana University Research and Technology Corporation, priority 2013, dated 2020)
“Also recorded” adds a separate entry of the source. Like-named read-outs stand apart in the source and are kept apart here.

How the values were obtained:
[1] = tested on: HRECs; experiment: ALAMARBLUE proliferation assay in HRECs; type: cell-based, human; conditions: for GI50: Homo sapiens, HREC; for in vitro anti-proliferative activity in HRECs: result in words, FIGS. 6B, 6D, 14
Procedure: (§1) Particularly, in a 96-well clear bottom black plate, cells (2,500 cells per well) were seeded in a total volume of 100 μL EGM-2. After 24 hours of incubation of the plate at 37° C. and 5% CO2, a DMSO solution of synthetic cremastranone (1) or SH-11052 (2) was added in the concentration range of 0.5 nM to 500 μM (final DMSO concentration=1%). The plate was then further incubated for 48 hours before adding 11.1 μL of ALAMARBLUE® reagent to each well. Four hours after the addition of ALAMARBLUE®, fluorescence readings with excitation and emission wavelengths of 560 nm and 590 nm, respectively, were taken and the data were analyzed in GraphPad Prism software (v. 6.0). Dose response curves were generated and the GI50 values were calculated using the following equation: Y=100/(1+10^(X−Log GI50)).
(§2) For proliferation assays, cells (2500 per well) were seeded in a 96-well clear bottom black polystyrene plate in a total volume of 100 μL. HUVECs and HRECs were grown in EGM-2 and CSC+ media respectively, while 92-1 and Y79 cells were maintained in RPMI+10% FBS, penicillin/streptomycin and RB medium (IMDM+10% FBS+penicillin/streptomycin+10 μg/mL insulin+55 μM β-mercaptoethanol) respectively. After 24 hours of incubation of the plate at 37° C., the compounds were dissolved in DMSO and added in the concentration range of 500 μM to 0.5 nM. The plate was then incubated at 37° C. and 5% CO2 conditions for 48 hours before adding 11.1 μL of alamar blue reagent for each well. Four hours after the addition of ALAMARBLUE® reagent, fluorescence readings with excitation and emission wavelengths of 560 nm and 590 nm respectively were taken and the data was analyzed in GraphPad Prism software. The dose response curves were generated and the GI50 values were calculated using the equation: Y=100/(1+10^(X−Log GI50)) (Table 1).

[2] = tested on: HUVECs; experiment: ALAMARBLUE proliferation assay in HUVECs; type: cell-based, human; conditions: for GI50: 50% growth inhibitory concentration, alamarBlue
Procedure: as §1, §2

[3] = tested on: Y-79 retinoblastoma cells; experiment: ALAMARBLUE proliferation assay in Y-79 retinoblastoma cells; type: cell-based; conditions: 50% growth inhibitory concentration, 48 hours
Procedure: as §2

[4] = tested on: 92-1 uveal melanoma cells; experiment: ALAMARBLUE proliferation assay in 92-1 uveal melanoma cells; type: cell-based; conditions: for GI50: 50% growth inhibitory concentration, 48 hours, alamarBlue
Procedure: as §2

[5] = tested on: NF-κB p65; experiment: TNF-α induced NF-κB p65 nuclear translocation in HRECs (immunofluorescence); type: cell-based, human; conditions: 10 ng/ml TNF-α for 20 minutes
Procedure: Cells (25,000 per coverslip) were seeded onto coverslips coated with Attachment Factor (Cell Systems, Kirkland, Wash., USA) and incubated at 37° C. and 5% CO2 for 24 hours in EGM-2. The cells were starved in 0.1% serum-EBM-2 for 8 hours followed by 0.1% serum-EBM-2 medium for one hour in the presence of different concentrations of SH-11052 (2). The cells were induced with 10 ng/ml TNF-α, a known pro-inflammatory cytokine and inducer of NF-κB, for 20 minutes and fixed with 4% paraformaldehyde solution for 20 minutes at room temperature. Since NF-κB exerts its transcriptional activity in the nucleus, blockade of stimulus-induced nuclear translocation of NF-κB is an indication of NF-κB pathway inhibition.
Cells were quickly washed three times in TBS and permeabilized by incubating with 0.5% Triton X-100 for 10 minutes. The cells were blocked in 10% block solution (DAKO) in TBS plus 1% BSA followed by incubation with an antibody against NF-κB p65 (1:50 dilution). Dylight 488-conjugated goat anti-mouse secondary antibody (1:200 dilution) was used to probe the NF-κB p65 antibody. The coverslips were mounted using Vectashield mounting medium containing DAPI (Vector Labs) for nuclear staining. The cells were imaged using an LSM 700 confocal microscope (Zeiss). […]

[6] = tested on: HRECs; experiment: Apoptosis of HRECs by cleaved caspase-3 staining; type: cell-based, human
Procedure: Further, cells (25,000 per coverslip) were seeded onto coverslips coated with Attachment Factor (Cell Systems, Kirkland, Wash., USA) and incubated at 37° C. and 5% CO2 in EGM-2 until ˜80% confluence was achieved. The cells were then incubated for 4 hours with the indicated concentrations of SH-11052 (2). Staurosporine (SP; 1 μM) was used as a positive control. After the incubation, the cells were fixed in 4% paraformaldehyde for 20 minutes at room temperature followed by three quick washes in Tris buffered saline pH 7.4 (TBS). The cells were permeabilized by incubating with 0.5% Triton X-100 for 10 minutes and then blocked in 10% block solution (DAKO, Glostrup, Denmark) in TBS plus 1% bovine serum albumin (BSA) for 1 hour. The cells were then incubated with cleaved caspase-3 (D175) antibody (1:200 dilution) overnight at 4° C. Dylight 555 conjugated goat anti-rabbit secondary antibody (1:400) was used to probe the cleaved caspase-3 antibody. The coverslips were mounted using Vectashield mounting medium containing DAPI (Vector Labs, Burlingame, Calif., USA) for nuclear staining. The cells were imaged using an LSM 700 confocal microscope (Zeiss, Thornwood, N.Y., USA).

[7] = 50% growth inhibitory concentration, 48 hours, alamarBlue, read-out: GI50 HREC

Structure (SMILES) | GI50 [1, 7] [µM] | GI50 ([1]; text of Example 15, FIG. 14, read-out: HREC GI50) [µM] | in vitro anti-proliferative activity in HRECs [1] | GI50 ([2]; 48 hours, listed as 6c (SH-11037), read-out: GI50 HUVEC) [µM] | GI50 ([2]; Homo sapiens, HUVEC, 48 h) [µM] | GI50 [3] [µM] | GI50 [4] [µM] | toxicity to a uveal melanoma cell line ([4]; result in words) | nuclear translocation of NF-κB (p65) upon TNF-α stimulation / NF-κB signaling ([5]; listed as SH-11037 (6c)) | apoptosis of HRECs ([6]; concentration not given, FIGS. 16A-16B, listed as SH-11037 (6c)) | in vitro anti-proliferative activity in HUVECs ([2]; result in words, FIGS. 6A, 6C) | nuclear translocation of NF-κB (p65) upon TNF-α stimulation / NF-κB signaling ([5]; listed as SH-11052 (2)) | apoptosis of HRECs (cleaved caspase-3 staining) ([6]; 100 μM, 4 hours)
COc1ccc(CC2COc3cc(OC)c(OC)c(OC)c3C2=O)cc1OC(=O)[C@H](Cc1ccccc1)NC(=O)OC(C)(C)C (stereo partly drawn) [Compound 6c, (2S)-2-methoxy-5-((5,6,7-trimethoxy-4-oxochroman-3-yl)methyl)phenyl 2-((tert-butoxycarbonyl)amino)-3-phenylpropanoate] | 0.087 | 0.15 | inhibition of proliferation | 0.746 | 1 | 12 | 400 | non-toxic | did not inhibit NF-κB signaling | did not cause apoptosis; also recorded: did not promote apoptosis | – | – | –
COc1ccc(CC2COc3cc(OC)c(O)c(O)c3C2=O)cc1O (single isomer, unassigned) [Compound 2] | 43 | – | demonstrated in vitro anti-proliferative activity | – | 18 | 87 | 6 | – | – | – | demonstrated in vitro anti-proliferative activity | blocked NF-κB signaling; also recorded: inhibited | negligible apoptosis
